≈ marks a conversion by molar mass, not a printed value.
Columns and labels:
Test in all cases: Bacterial growth minimal inhibitory concentration (microdilution, CLSI M7-A7)
Type in all cases: cell-based
K. pneumoniae A-651 = settings: Klebsiella pneumoniae, A651; multiply-resistant strain (in particular quinolone-resistant); cation-adjusted Mueller-Hinton Broth
Procedure: (§1) Minimal Inhibitory Concentrations (MICs; mg/L) were determined in cation-adjusted Mueller-Hinton Broth by a microdilution method following the description given in “Methods for Dilution Antimicrobial Susceptibility Tests for Bacteria that Grow Aerobically”, Approved standard, 7th ed., Clinical and Laboratory Standards Institute (CLSI) Document M7-A7, Wayne, Pa., USA (2006).
(§2) All Example compounds were tested against several Gram-positive and Gram-negative bacteria. […] K. pneumoniae A-651 and Acinetobacter baumannii T6474 are multiply-resistant strains (in particular quinolone-resistant), while E. coli ATCC25922 and P. aeruginosa ATCC27853 are quinolone-sensitive strains.

P. aeruginosa ATCC27853 = settings: Pseudomonas aeruginosa, ATCC27853; quinolone-sensitive strain; cation-adjusted Mueller-Hinton Broth
Procedure: as §1, §2

[1] = system: Acinetobacter baumannii T6474; settings: Acinetobacter baumannii, T6474; multiply-resistant strain (in particular quinolone-resistant); cation-adjusted Mueller-Hinton Broth
Procedure: as §1, §2

E. coli ATCC25922 = settings: Escherichia coli, ATCC25922; quinolone-sensitive strain; cation-adjusted Mueller-Hinton Broth
Procedure: as §1, §2

| Structure (SMILES) | MIC (K. pneumoniae A-651) [µg/mL] | MIC (P. aeruginosa ATCC27853) [µg/mL] | MIC [1] [µg/mL] | MIC (E. coli ATCC25922) [µg/mL] |
| --- | --- | --- | --- | --- |
| C[C@@](CCn1ncc2cc(C#Cc3ccc([C@H](O)CO)cc3)ccc21)(C(=O)NO)S(C)(=O)=O [Example 22, (R)-4-(5-((4-((S)-1,2-dihydroxyethyl)phenyl)ethynyl)-1H-indazol-1-yl)-N-hydroxy-2-methyl-2-(methylsulfonyl)butanamide] | 1 (≈ 2.12 µM) | 1 (≈ 2.12 µM) | 0.5 (≈ 1.06 µM) | 0.5 (≈ 1.06 µM) |
| C[C@H](O)c1ccc(C#Cc2ccc3c(cnn3CC[C@](C)(C(=O)NO)S(C)(=O)=O)c2)cc1 [Example 23, (R)—N-hydroxy-4-(5-((4-((S)-1-hydroxyethyl)phenyl)ethynyl)-1H-indazol-1-yl)-2-methyl-2-(methylsulfonyl)butanamide] | 0.5 (≈ 1.1 µM) | 1 (≈ 2.2 µM) | 0.125 (≈ 0.274 µM) | 0.125 (≈ 0.274 µM) |
| CC(C)(N)C#CC#Cc1ccc2c(cnn2CC[C@](C)(C(=O)NO)S(C)(=O)=O)c1 [Example 24, (R)-4-(5-(5-amino-5-methylhexa-1,3-diyn-1-yl)-1H-indazol-1-yl)-N-hydroxy-2-methyl-2-(methylsulfonyl)butanamide] | 4 (≈ 9.6 µM) | 1 (≈ 2.4 µM) | > 32 | 1 (≈ 2.4 µM) |
| C[C@@](CCn1ccc2cc(C#Cc3ccc(C4(CO)CC4)cc3)ccc21)(C(=O)NO)S(C)(=O)=O [Example 25, (R)—N-hydroxy-4-(5-((4-(1-(hydroxymethyl)cyclopropyl)phenyl)ethynyl)-1H-indol-1-yl)-2-methyl-2-(methylsulfonyl)butanamide] | 0.5 (≈ 1.04 µM) | 2 (≈ 4.16 µM) | 0.5 (≈ 1.04 µM) | 0.25 (≈ 0.52 µM) |
| C[C@@](CCn1ncc2cc(C#CC#C[C@H]3C[C@@H]3CO)ccc21)(C(=O)NO)S(C)(=O)=O [Example 26, (R)—N-hydroxy-4-(5-(((1S,2S)-2-(hydroxymethyl)cyclopropyl)buta-1,3-diyn-1-yl)-1H-indazol-1-yl)-2-methyl-2-(methylsulfonyl)butanamide] | 0.125 (≈ 0.291 µM) | 0.5 (≈ 1.16 µM) | 2 (≈ 4.66 µM) | ≤ 0.063 |
| C[C@@](CCn1ncc2cc(C#Cc3ccc(OCCO)cc3)ccc21)(C(=O)NO)S(C)(=O)=O [Example 27, (R)—N-hydroxy-4-(5-((4-(2-hydroxyethoxy)phenyl)ethynyl)-1H-indazol-1-yl)-2-methyl-2-(methylsulfonyl)butanamide] | 0.5 (≈ 1.06 µM) | 2 (≈ 4.24 µM) | 0.125 (≈ 0.265 µM) | 0.25 (≈ 0.53 µM) |
| C[C@@](CCn1ncc2cc(C#Cc3ccc(NC(=O)CO)cc3)ccc21)(C(=O)NO)S(C)(=O)=O [Example 28, (R)—N-hydroxy-4-(5-((4-(2-hydroxyacetamido)phenyl)ethynyl)-1H-indazol-1-yl)-2-methyl-2-(methylsulfonyl)butanamide] | 2 (≈ 4.13 µM) | 4 (≈ 8.26 µM) | 0.5 (≈ 1.03 µM) | 1 (≈ 2.06 µM) |
| CC(C)(O)c1ccc(C#Cc2ccc3c(ccn3CC[C@](C)(C(=O)NO)S(C)(=O)=O)c2)cc1 [Example 29, (R)—N-hydroxy-4-(5-((4-(2-hydroxypropan-2-yl)phenyl)ethynyl)-1H-indol-1-yl)-2-methyl-2-(methylsulfonyl)butanamide] | 0.5 (≈ 1.07 µM) | 2 (≈ 4.27 µM) | 0.5 (≈ 1.07 µM) | 0.25 (≈ 0.534 µM) |
| C[C@@](CCn1ncc2c(F)c(C#Cc3ccc(C4(O)COC4)cc3)ccc21)(C(=O)NO)S(C)(=O)=O [Example 30, (R)-4-(4-fluoro-5-((4-(3-hydroxyoxetan-3-yl)phenyl)ethynyl)-1H-indazol-1-yl)-N-hydroxy-2-methyl-2-(methylsulfonyl)butanamide] | 0.5 (≈ 0.997 µM) | 1 (≈ 1.99 µM) | 0.125 (≈ 0.249 µM) | 0.25 (≈ 0.498 µM) |
| C[C@@](CCn1ncc2c(F)c(C#CC#C[C@H]3C[C@@H]3CO)ccc21)(C(=O)NO)S(C)(=O)=O [Example 31, (R)-4-(4-fluoro-5-(((1S,2S)-2-(hydroxymethyl)cyclopropyl)buta-1,3-diyn-1-yl)-1H-indazol-1-yl)-N-hydroxy-2-methyl-2-(methylsulfonyl)butanamide] | ≤ 0.063 | 0.5 (≈ 1.12 µM) | 1 (≈ 2.23 µM) | ≤ 0.063 |
| C[C@@](CCn1ccc2cc(C#Cc3ccc([C@H]4C[C@@H]4CO)cc3)ccc21)(C(=O)NO)S(C)(=O)=O [Example 33, (R)—N-hydroxy-4-(5-((4-((1S,2S)-2-(hydroxymethyl)cyclopropyl)phenyl)ethynyl)-1H-indol-1-yl)-2-methyl-2-(methylsulfonyl)butanamide] | 0.25 (≈ 0.52 µM) | 2 (≈ 4.16 µM) | 0.125 (≈ 0.26 µM) | 0.125 (≈ 0.26 µM) |
